The melting point is the temperature, or range, at which the solid turns liquid.

Regarding `COc1ccc(-c2ocnc2-c2cc(OC)c(O)c(OC)c2)cc1N` [CN05, 4-(3,5-dimethoxy-4-hydroxyphenyl)-5-(3-amino-4-methoxyphenyl)oxazole], the melting point was in the range of 101.2 to 102 °C.

The molecule `COc1ccc(-c2ocnc2-c2cc(OC)c(N)c(OC)c2)cc1O` [CN08, 4-(3,5-dimethoxy-4-aminophenyl)-5-(3-hydroxy-4-methoxyphenyl)oxazole] yielded a melting point of 126 to 129.6 °C.

As for `COc1ccc(-c2ncn(-c3cc(OC)c(OC)c(OC)c3)c2-c2cc(OC)c(OC)c(OC)c2)cc1OC` [Compound C104, 5-(3,4,5-trimethoxyphenyl)-4-(3,4-dimethoxyphenyl)-1-(3,4,5-trimethoxyphenyl)imidazole], the melting point fell in the range of 159.5 to 161 °C.

On to `COc1cc(OC)cc(-c2ncoc2-c2ccc3c(c2)NCCO3)c1` [Compound C255, 4-(3,5-dimethoxyphenyl)-5-(6-benzomorpholinyl)oxazole], for which the melting point was 175 to 178 °C.

`COc1cc(OC)cc(-c2ncoc2-c2ccc(N(C)C)c(N)c2)c1` [Compound C113, 4-(3,5-dimethoxyphenyl)-5-(3-amino-4-dimethylaminophenyl)oxazole] showed a melting point of 111.7 to 113.5 °C.

For the molecule `COc1cc(OC)cc(-c2ncoc2-c2ccc(NC(C)=O)cc2)c1` [Compound C109, 5-(4-acetamidophenyl)-4-(3,5-dimethoxyphenyl)oxazole], the melting point lay in the range of 140.1 to 143.2 °C.

With `COc1ccc(-c2ocnc2-c2cc(OC)c(F)c(OC)c2)cc1N` [CN20, 4-(3,5-dimethoxy-4-fluorophenyl)-5-(3-amino-4-methoxyphenyl)oxazole], the melting point lay within 139.7 to 142.1 °C.

In turn, `COc1ccc(-c2[nH]cnc2-c2cc(OC)c(Br)c(OC)c2)cc1O` [CN11, 4-(3,5-dimethoxy-4-bromophenyl)-5-(3-hydroxy-4-methoxyphenyl) imidazole] returned a melting point of 184.7 to 187 °C.

The molecule `COc1ccc(-c2ocnc2-c2cc(OC)c([N+](=O)[O-])c(OC)c2)cc1O` [CN07, 4-(3,5-dimethoxy-4-nitrophenyl)-5-(3-hydroxy-4-methoxyphenyl)oxazole] displayed a melting point of 186.2 to 188.4 °C.

`COc1ccc(-c2[nH]cnc2-c2cc(OC)c([N+](=O)[O-])c(OC)c2)cc1O` [CN16, 4-(3,5-dimethoxy-4-nitrophenyl)-5-(3-hydroxy-4-methoxyphenyl)imidazole] had a melting point of 147.7 to 149 °C.

For the molecule `COc1cc(OC)cc(-c2ncn(-c3cc(OC)c(OC)c(OC)c3)c2-c2ccc(OC)c(F)c2)c1` [Compound C091, 5-(3-fluoro-4-methoxyphenyl)-4-(3,5-dimethoxyphenyl)-1-(3,4,5-trimethoxyphenyl)imidazole], the melting point lay within 157 to 158.4 °C.

In turn, `COc1cc(OC)cc(-c2ncoc2-c2cc(N)c(OC)cc2N)c1` [Compound C119, 4-(3,5-dimethoxyphenyl)-5-(2,5-diamino-4-methoxyphenyl)oxazole] registered a melting point of 149.9 to 151.6 °C.

Take `COc1ccc(-c2ocnc2-c2cc(OC)c(OC(F)(F)F)c(OC)c2)cc1N` [CN23, 4-(3,5-dimethoxy-4-trifluoromethoxyphenyl)-5-(3-amino-4-methoxyphenyl)oxazole]: the melting point fell in the range of 167.9 to 170.2 °C.

Consider `COc1ccc(-c2[nH]cnc2-c2cc(OC)c(N)c(OC)c2)cc1F` [CN10, 4-(3,5-dimethoxy-4-aminophenyl)-5-(3-fluoro-4-methoxyphenyl) imidazole], for which the melting point lay in the range of 100.8 to 102.6 °C.

In the case of `COc1ccc(-c2ocnc2-c2cc(OC)c(Cl)c(OC)c2)cc1N` [CN21, 4-(3,5-dimethoxy-4-chlorophenyl)-5-(3-amino-4-methoxyphenyl)oxazole], the melting point was in the range of 146.2 to 148.1 °C.

In turn, `COc1ccc(-c2[nH]cnc2-c2cc(OC)c(O)c(OC)c2)cc1N` [CN14, 4-(3,5-dimethoxy-4-hydroxyphenyl)-5-(3-amino-4-methoxyphenyl)imidazole] came in with a melting point of 148.5 to 149.9 °C.

(Values after patent US9139574B2, “Tumor targeted drug combretastatin A4 derivative” (Nanjing Sanhome Pharmaceutical Co., Ltd., priority 2011, dated 2015).)
